US10987349B2, “Antitumor agent and bromodomain inhibitor” (FUJIFILM Corporation, priority 2016, dated 2021)

Tests used:
BRD2 BD1 = molecular target: T1, BRD2 BD1 (Homo sapiens, UniProt P25440); experiment: Binding assay, BRD2 BD1 to acetylated histone H4 Peptide-Biotin (EPIgeneous Binding Domain Kit A); conditions: for inhibition at 0.3 µM: test compound at 300 nmol/L, read-out: Binding inhibition percentage BRD2 BD1
T1 construct: BRD2 BD1, BRD3 BD1 and BRD4 BD1 (Cisbio); purchased Cisbio
Outline: (§1)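 HTRF competition: bromodomain protein (added at 20 nmol/L) and biotinylated tetra-acetyl H4(1-25) peptide (added at 25 nmol/L) were incubated with compound, streptavidin-d2 and anti-GST Eu cryptate for 20 h at room temperature. Inhibition came from the 665/620 nm ratio relative to DMSO; IC50 by four-parameter fit; some compounds were tested only at 300 nmol/L final.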

BRD2 BD2 = molecular target: T2, BRD2 BD2 (Homo sapiens, UniProt P25440); experiment: Binding assay, BRD2 BD2 to acetylated histone H4 Peptide-Biotin (EPIgeneous Binding Domain Kit B); conditions: for inhibition at 0.3 µM: test compound at 300 nmol/L, read-out: Binding inhibition percentage BRD2 BD2
T2 construct: BRD2 BD2, BRD3 BD2 and BRD4 BD2 (Cisbio); purchased Cisbio
T2 sequence (P25440 344-453 limits assumed): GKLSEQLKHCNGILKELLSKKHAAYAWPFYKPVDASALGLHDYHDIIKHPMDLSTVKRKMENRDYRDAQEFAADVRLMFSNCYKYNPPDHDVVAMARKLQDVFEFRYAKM
Outline: (§2)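 HTRF binding of GST-tagged BD2 (20 nmol/L working stock) to biotinylated acetyl-histone H4 peptide (250 nmol/L working stock), using streptavidin-XL665 and anti-GST Eu cryptate. Incubated 20 h at room temperature; 665/620 nm ratio versus DMSO gives % inhibition; IC50 by four-parameter fit, or % inhibition at 300 nmol/L.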

BRD3 BD1 = molecular target: T3, BRD3 BD1 (Homo sapiens, UniProt Q15059); experiment: Binding assay, BRD3 BD1 to acetylated histone H4 Peptide-Biotin (EPIgeneous Binding Domain Kit A); conditions: for inhibition at 0.3 µM: test compound at 300 nmol/L, read-out: Binding inhibition percentage BRD3 BD1
T3 construct: BRD2 BD1, BRD3 BD1 and BRD4 BD1 (Cisbio); purchased Cisbio
T3 sequence (Q15059 34-140 limits assumed): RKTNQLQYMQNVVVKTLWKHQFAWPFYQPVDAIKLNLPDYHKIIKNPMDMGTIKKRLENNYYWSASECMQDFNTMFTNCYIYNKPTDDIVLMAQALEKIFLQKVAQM
Outline: as §1

BRD3 BD2 = molecular target: T4, BRD3 BD2 (Homo sapiens, UniProt Q15059); experiment: Binding assay, BRD3 BD2 to acetylated histone H4 Peptide-Biotin (EPIgeneous Binding Domain Kit B); conditions: for inhibition at 0.3 µM: test compound at 300 nmol/L, read-out: Binding inhibition percentage BRD3 BD2
T4 construct: BRD2 BD2, BRD3 BD2 and BRD4 BD2 (Cisbio); purchased Cisbio
T4 sequence (Q15059 306-415 limits assumed): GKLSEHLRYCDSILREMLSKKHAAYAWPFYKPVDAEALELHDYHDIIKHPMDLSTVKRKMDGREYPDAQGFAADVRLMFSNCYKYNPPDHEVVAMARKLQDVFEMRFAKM
Outline: as §2

BRD4 BD1 = molecular target: T5, BRD4 BD1 (Homo sapiens, UniProt O60885); experiment: Binding assay, BRD4 BD1 to acetylated histone H4 Peptide-Biotin (EPIgeneous Binding Domain Kit A); conditions: for inhibition at 0.3 µM: test compound at 300 nmol/L, read-out: Binding inhibition percentage BRD4 BD1
T5 construct: BRD2 BD1, BRD3 BD1 and BRD4 BD1 (Cisbio); purchased Cisbio
Outline: as §1

BRD4 BD2 = molecular target: T6, BRD4 BD2 (Homo sapiens, UniProt O60885); experiment: Binding assay, BRD4 BD2 to acetylated histone H4 Peptide-Biotin (EPIgeneous Binding Domain Kit B); conditions: for inhibition at 0.3 µM: test compound at 300 nmol/L, read-out: Binding inhibition percentage BRD4 BD2
T6 construct: BRD2 BD2, BRD3 BD2 and BRD4 BD2 (Cisbio); purchased Cisbio
Outline: as §2

[1] = system: human undifferentiated thymoma cell line Ty-82; experiment: Cell growth test (Cell Titer Glo) Ty-82; format: cell-based; conditions: TY82, 3 to 5 days
Text: (§3) The human undifferentiated thymoma cell line Ty-82 (JCRB), the human acute myeloid leukemia cell lines MV4-11 (ATCC), MOLM-13 (ATCC) and RS4-11 (ATCC), the human lymphoma cell line Raji (JCRB), the human cervical epidermoid carcinoma cell line Hela (JCRB), the human lung adenocarcinoma cell line A549 (ATCC), the human colon cancer cell lines DLD1 (DS Pharma) and HCT116 (DS Pharma), and the human pancreatic cancer cell line MIAPACA-2 (ATCC) were used to carry out a cell growth test.
(§4) Ty-82, MV4-11, MOLM-13, RS4-11, Raji and DLD1 were each seeded in a well plate, in which Roswell Park Memorial Institute (RPMI)-1640 medium supplemented with penicillin/streptomycin and fetal bovine serum (FBS) with a final concentration of 10% was placed. Hela was seeded in Dulbecco's Modified Eagle's medium (DMEM) supplemented with penicillin/streptomycin and FBS with a final concentration of 10%. A549 and MIAPACA-2 were each seeded in a well plate, in which Minimum Essential Medium (MEM) supplemented with penicillin/streptomycin and FBS with a final concentration of 10% was placed. HCT116 was seeded in a well plate, in which McCoy's 5A medium supplemented with penicillin/streptomycin and FBS with a final concentration of 10% was placed.
(§5) Thereafter, a medium containing a test compound serially diluted with DMSO, or DMSO, was added to each well of the plate, in which the cells had been seeded, and the obtained mixture was then cultured under conditions of 37° C. and 5% CO2 for 3 to 5 days. Cell Titer Glo reaction solution (Promega) was added to the culture, and the amount of luminescence was then measured using Envision plate reader (PerkinElmer). Since the amount of luminescence is in proportion to the concentration of adenosine triphosphate (ATP) in cells, the amount of luminescence was used as an indicator of the number of living cells. The growth inhibition percentage of the test compound in each concentration was calculated according to the following equation. Growth inhibition percentage (%)=(amount of luminescence in test compound−added well)/(amount of luminescence in DMSO−added well)×100
(§6) The growth inhibition percentage of the test compound in each concentration was plotted by performing a non-linear regression analysis [(log (inhibitor) vs. response—Variable slope (four parameters)], using Graphpad prism 5, and a 50% growth inhibitory concentration [GI50 (nmol/L)] was then calculated.

[2] = system: human acute myeloid leukemia cell line MV4-11; experiment: Cell growth test (Cell Titer Glo) MV4-11; format: cell-based; conditions: 3 to 5 days
Text: as §3, §4, §5, §6

[3] = system: human acute myeloid leukemia cell line MOLM-13; experiment: Cell growth test (Cell Titer Glo) MOLM-13; format: cell-based; conditions: 3 to 5 days
Text: as §3, §4, §5, §6

[4] = system: MV4-11 subcutaneously transplanted tumor; experiment: Medicinal effect test, MV4-11-subcutaneously-transplanted cancer-bearing mouse models, oral administration; format: in vivo; conditions: orally, once per day, 14 days, BALB/c nu/nu mice
Experimental: The human acute myeloid leukemia cell line MV4-11 (ATCC) was suspended in a mixture of RPMI-1640 medium and Matrigel (Corning), and the obtained mixture was then subcutaneously transplanted into 6-week-old female BALB/c nu/nu mice (CLEA Japan, Inc.). After confirming that the average tumor volume exceeded 200 mm^3, a test compound was dissolved in a solvent (a 0.5% methyl cellulose aqueous solution or water containing 1 equivalent of hydrochloric acid), and the obtained solution was then orally administered to the mice at a daily dose of 10 to 30 mg/kg, once per day, for 14 days. As a negative control, a solvent administration group involving administration of a 0.5% methyl cellulose aqueous solution was established. The tumor diameter was measured on a daily basis, and the tumor volume was calculated. The tumor volume was calculated by measuring the major axis and minor axis of the tumor and then applying the following equation. Tumor volume (mm^3)=[major axis (mm)×minor axis (mm)×minor axis (mm)]/2
T/C (%) was calculated from the average tumor volume of each group according to the following equation, and medicinal effects were then evaluated. T/C(%)=[1−(average tumor volume of drug administration group)/(average tumor volume of solvent administration group)]×100%

T1 sequence (P25440 74-180 limits assumed): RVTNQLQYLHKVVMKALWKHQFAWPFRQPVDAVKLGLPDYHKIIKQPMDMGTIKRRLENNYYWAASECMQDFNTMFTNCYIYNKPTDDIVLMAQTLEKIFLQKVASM

SMILES	IC50 (BRD2 BD1) [nM]	inhibition at 0.3 µM (BRD2 BD1) [%]	IC50 (BRD2 BD2) [nM]	inhibition at 0.3 µM (BRD2 BD2) [%]	IC50 (BRD3 BD1) [nM]	inhibition at 0.3 µM (BRD3 BD1) [%]	IC50 (BRD3 BD2) [nM]	inhibition at 0.3 µM (BRD3 BD2) [%]	IC50 (BRD4 BD1) [nM]	inhibition at 0.3 µM (BRD4 BD1) [%]	IC50 (BRD4 BD2) [nM]	inhibition at 0.3 µM (BRD4 BD2) [%]	GI50 [1] [nM]	GI50 [2] [nM]	GI50 [3] [nM]	T/C (%) ([4]; 10 mg/kg)	T/C (%) ([4]; 30 mg/kg)
CCn1c(=O)cc(N2CCOCC2)c2cc(-n3c(-c4ccc(Cl)cc4)cn(C)c3=O)ccc21 [Example 246, 6-(5-(4-chlorophenyl)-3-methyl-2-oxo-2,3-dihydro-1H-imidazol-1-yl)-1-ethyl-4-(morpholin-4-yl)quinolin-2(1H)-one]	144	34	18	82	91	55	12	90	40	67	7	84	17	16	43	13	33
CCn1c(=O)cc(N2CCOCC2)c2cc(-n3c(-c4ccccc4)cn(C(C)C)c3=O)ccc21 [Example 247, 1-ethyl-4-(morpholin-4-yl)-6-(2-oxo-5-phenyl-3-(propan-2-yl)-2,3-dihydro-1H-imidazol-1-yl)quinolin-2(1H)-one]		83		90		93		91		94		89	11	16	43		33
